For data set [1], the target named is T1, PI3Kα (Homo sapiens, UniProt P42336).
T1 construct: His tag (pFastbac HTb vector) (N); FLAG; made in house; host or cells: Sf21 insect cells (baculovirus)
Nature of the data set: Biochemical assay of PI3K potency and selectivity using 20 μM ATP, Alpha. The note with it: for Alpha/Delta Ratio / IC50: 20 μM ATP; for Alpha/Delta Ratio: ratio of IC50 values, > = hypothetical ratio with 100 μM substituted for the missing IC50; for IC50: read-out: Alpha IC50. Summed up: (§1)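 Radioactive phosphate transfer from γ-[32P]ATP onto PIP2/PS liposomes was measured in 20 mM HEPES, pH 7.4, at 20 μM ATP. The 3× substrate stock contained […] and 6 μM PIP2/PS.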

The target of data set [2] is T2, PI3Kβ (Homo sapiens, UniProt P42338).
T2 construct: His tag (pFastbac HTa vector) (N); FLAG (N); made in house; host or cells: Sf21 insect cells (baculovirus)
Nature of the data set: Biochemical assay of PI3K potency and selectivity using 20 μM ATP, Beta. The note with it: 20 μM ATP; for Beta/Delta Ratio: ratio of IC50 values, > = hypothetical ratio with 100 μM substituted for the missing IC50; for IC50: read-out: Beta IC50; for remaining activity at 100 µM: read-out: Beta: percent activity remaining at 100 μM, 100 μM compound did not inhibit by at least 50%. A digest of the protocol:
as §1

Data set [3] addresses T3, PI3Kγ (Homo sapiens, UniProt P48736).
T3 construct: His tag (pFastbac HTb vector) (N); FLAG (N); made in house; host or cells: Sf21 insect cells (baculovirus)
Nature of the data set: Biochemical assay of PI3K potency and selectivity using 20 μM ATP, Gamma. The following applies: for Gamma/Delta Ratio: ratio of IC50 values. The source says: Recombinant baculoviruses containing the above clones were generated using manufacturer's recommended protocol (Life Technologies). Baculoviruses expressing His-tagged p110α, p110γ, or p110δ catalytic subunit and p85 subunit were coinfected into Sf21 insect cells. To enrich the heterodimeric enzyme complex, an excess amount of baculovirus expressing p85 subunit was infected, and the His-tagged p110 catalytic subunit complexed with p85 was purified on nickel affinity column. […] In an alternate approach, p101 can be cloned into baculovirus, to permit coexpression with its preferred binding partner p110γ. […]

In data set [4] the target is T1, PI3Kα. Nature of the data set: Biochemical assay using 200 μM ATP, Alpha.
Data set [5] concerns the target T2, PI3Kβ. Nature of the data set: Biochemical assay using 200 μM ATP, Beta.
Procedure: PI3Kδ catalyzes a phosphotransfer from γ-[^32P]ATP to PIP2/PS liposomes at the D3′ position of the PIP2 lipid inositol ring. This reaction is MgCl2 dependent and is quenched in high molarity potassium phosphate buffer pH 8.0 containing 30 mM EDTA. […] The reaction products (and all unlabelled products) are transferred to a 96-well, prewetted PVDF filter plate, filtered, and washed in high molarity potassium phosphate. Scintillant is added to the dried wells and the incorporated radioactivity is quantitated.
This dilution established a final concentration of 200 μM ATP in the reaction volume. The reaction was stopped with 150 μL quench buffer (1.0 M potassium phosphate pH 8.0, 30 mM EDTA). A portion of the quenched solution (180 μL) was then transferred to a PVDF filter plate (Millipore # MAIP NOB prewetted with sequential 200 μL washes of 100% methanol, water, and finally 1.0 M potassium phosphate pH 8.0 wash buffer).
The PVDF filter plate was aspirated under moderate vacuum (2-5 mm Hg), washed with 5×200 μL of wash buffer, and then dried by aspiration. The filter was subsequently blotted, allowed to air dry completely, and inserted into a Wallac counting cassette with 50 μL of Ecoscint scintillation cocktail added per well.
Subsequent selectivity assays were done similarly using the same 3× substrate stocks except they contained 0.05 mCi/mL γ[^32P]ATP and 3 mM PIP2. Subsequent selectivity assays also used the same 3× enzyme stocks, except they now contained 3 nM of any given PI3K isoform.
For all selectivity assays, the test compounds were weighed out and dissolved into 10-50 mM stocks in 100% DMSO (depending on their respective solubilities) and stored at −20° C. […] From these dilutions, 20 μL was added into the assay wells alongside water blanks used for the enzyme (positive) control and the no enzyme (background) control.
This selectivity protocol is identical to that described above, except the 3× stock ATP concentration was 600 μM.
Data set [6] deals with T3, PI3Kγ. Nature of the data set: Biochemical assay using 200 μM ATP, Gamma.
Data set [7] relates to human neutrophils. Nature of the data set: Elastase exocytosis from neutrophils (fMLP-induced). The data set is classed as cell-based. The note with it: neutrophil (PMN) elastase release. The procedure:
Aliquots (8 mL) of heparinized blood from healthy volunteers were layered on 3 mL cushions of 7.3% FICOLL® (Sigma, St. Louis, Mo.) and 15.4% HYPAQUE® (Sigma) and centrifuged at 900 rpm for 30 min at room temperature in a table top centrifuge (Beckman). The neutrophil-rich band just above the FICOLL®-HYPAQUE® cushion was collected and washed with Hanks' balanced salt solution (HBSS) containing 0.1% gelatin. Residual erythrocytes were removed by hypotonic lysis with 0.2% NaCl. The neutrophil preparation was washed twice with HBSS containing 0.1% gelatin and used immediately.
In addition to superoxide generation, activated neutrophils also respond by releasing several proteases that are responsible for the destruction of tissues and cartilage during inflammation. As an indication of protease release, the effect of D-000 on elastase exocytosis was measured. Elastase exocytosis was quantitated by modification of the procedure described by Ossanna et al. (J Clin Invest, 77:1939-1951 (1986)), as follows. Purified human neutrophils (0.2×10^6) (treated with either DMSO or a serial dilution of D-000 in DMSO) were stimulated with fMLP in PBS containing 0.01 mg/mL cytochalasin B, 1.0 μM sodium azide (NaN3), 5 μg/mL L-methionine and 1 μM fMLP for 90 min at 37° C. in a 96-well plate. At the end of the incubation period, the plate was centrifuged for 5 min at 1000 rpm, and 90 μL of the supernatant was transferred to 10 μL of 10 mM solution of an elastase substrate peptide, MeO-suc-Ala-Ala-Pro-Val-pNA, wherein MeO-suc=methoxy-succinyl; pNA=p-nitroanilide (Calbiochem, San Diego, Calif.). Absorbance at 410 nm was monitored for 2 hr in a 96-well plate reader. To measure the relative amounts of elastase excytosed, all absorbance values were normalized to the values without any inhibitor. […] Inhibition was half-maximal at a concentration of about 2-3 μM D-000.
(§2) Using the methods described in Examples 3-5, above, compounds of the invention were tested for inhibitory activity and potency in assays of stimulated B and T cell proliferation, neutrophil (PMN) migration, and neutrophil (PMN) elastase release. In Table 4, the values shown are effective concentrations of the compound (EC50; μM). Where no value is given, no assay was performed.

Data set [8] has as its system Murine splenocytes (Balb/c). Nature of the data set: B cell proliferation in response to cell surface IgM stimulation. The following applies: Mus musculus, Splenocyte; stimulated B cell proliferation; read-out: Mouse BCR Stim (EC50). The data set is classed as cell-based. The procedure: In the above experiment, the B cells were stimulated using PANSORBIN®. The effect of D-000 on B cell proliferation response when they were stimulated through their cell surface IgM using anti-IgM antibody also was measured. Murine splenocytes (Balb/c) were plated into 96-well microtiter plates at 2×10^5 cells per well in 10% FBS/RPMI. Appropriate dilutions of test inhibitor in complete medium were added to the cells and the plates were incubated for 30-60 minutes prior to the addition of stimulus. Following the preincubation with test inhibitor an F(ab′)2 preparation of goat antibody specific for the μ-chain of mouse IgM was added to the wells at a final concentration of 25 μg/mL. The plates were incubated at 37° C. for 3 days and 1 μCi of [^3H]-thymidine was added to each well for the final four hours of culture. The plates were harvested onto fiber filters washed and the incorporation of radiolabel was determined using a beta counter (Matrix 96, Packard Instrument Co., Downers Grove, Ill.) and expressed as counts per minute (CPM).
as §2

Data set [9] concerns the target T4, PI3Kδ (Homo sapiens, UniProt O00329, S253N). Nature of the data set: Biochemical assay using 200 μM ATP, Delta.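 Further: radiometric filter-binding assay: PI3Kδ transfers ³²P from γ-[³²P]ATP onto PIP2/PS liposomes, counted by scintillation, enzyme-only wells as positive control, no-enzyme wells as background.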
Data set [10] has as its target T4, PI3Kδ. Nature of the data set: Biochemical assay of PI3K potency and selectivity using 20 μM ATP, Delta. Also on record: His tag (pFastbac HTb vector) (N); FLAG; made in house; host or cells: Sf21 insect cells (baculovirus). The following applies: 20 μM ATP; read-out: Delta IC50. A digest of the protocol: as §1
Data set [11] concerns T cell proliferation. Nature of the data set: Stimulated T cell proliferation (Mouse TCE Stim, Table 4). Type of data set: cell-based. The note with it: stimulated T cell proliferation, read-out: Mouse TCE Stim (EC50).
[12] abbreviates: read-out: percent activity remaining at 100 μM, 20 μM ATP, 100 μM compound did not inhibit by at least 50%.

Where two headings read alike, the source gives them in different places. Bounds are passed on as bounds.

Results on seven compounds are retold here after US20200061062A1, “INHIBITORS OF HUMAN PHOSPHATIDYLINOSITOL 3-KINASE DELTA” (ICOS Corporation, priority 2000, published 2020).

T1 sequence (P42336 whole entry): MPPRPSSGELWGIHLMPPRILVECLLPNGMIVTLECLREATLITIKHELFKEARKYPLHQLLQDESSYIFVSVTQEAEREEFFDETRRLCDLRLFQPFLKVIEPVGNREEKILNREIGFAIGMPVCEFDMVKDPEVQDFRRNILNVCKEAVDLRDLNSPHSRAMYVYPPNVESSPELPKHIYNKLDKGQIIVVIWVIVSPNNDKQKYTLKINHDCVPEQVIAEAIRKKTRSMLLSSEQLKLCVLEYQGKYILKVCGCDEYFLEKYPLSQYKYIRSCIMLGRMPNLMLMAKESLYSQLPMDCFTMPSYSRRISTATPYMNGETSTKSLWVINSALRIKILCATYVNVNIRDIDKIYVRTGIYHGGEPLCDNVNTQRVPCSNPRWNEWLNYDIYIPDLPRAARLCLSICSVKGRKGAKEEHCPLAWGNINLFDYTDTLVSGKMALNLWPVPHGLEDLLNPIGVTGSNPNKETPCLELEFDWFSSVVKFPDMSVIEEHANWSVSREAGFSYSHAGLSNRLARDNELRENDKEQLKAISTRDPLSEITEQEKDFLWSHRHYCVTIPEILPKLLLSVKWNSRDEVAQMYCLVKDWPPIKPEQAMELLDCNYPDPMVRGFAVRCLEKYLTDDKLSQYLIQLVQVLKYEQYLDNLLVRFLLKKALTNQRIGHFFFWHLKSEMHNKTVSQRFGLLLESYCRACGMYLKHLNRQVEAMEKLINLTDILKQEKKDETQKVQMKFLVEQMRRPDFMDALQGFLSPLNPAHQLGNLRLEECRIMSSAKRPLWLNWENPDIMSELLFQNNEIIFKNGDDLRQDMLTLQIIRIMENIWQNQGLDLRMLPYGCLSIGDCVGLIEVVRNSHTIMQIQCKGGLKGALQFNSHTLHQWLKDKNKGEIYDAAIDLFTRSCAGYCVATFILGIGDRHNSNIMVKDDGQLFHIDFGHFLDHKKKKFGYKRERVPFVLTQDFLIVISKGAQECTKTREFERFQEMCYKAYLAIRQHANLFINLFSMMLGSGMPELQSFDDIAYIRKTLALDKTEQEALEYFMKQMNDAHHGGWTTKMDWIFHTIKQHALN
T1 sequence (P27986 whole entry partner): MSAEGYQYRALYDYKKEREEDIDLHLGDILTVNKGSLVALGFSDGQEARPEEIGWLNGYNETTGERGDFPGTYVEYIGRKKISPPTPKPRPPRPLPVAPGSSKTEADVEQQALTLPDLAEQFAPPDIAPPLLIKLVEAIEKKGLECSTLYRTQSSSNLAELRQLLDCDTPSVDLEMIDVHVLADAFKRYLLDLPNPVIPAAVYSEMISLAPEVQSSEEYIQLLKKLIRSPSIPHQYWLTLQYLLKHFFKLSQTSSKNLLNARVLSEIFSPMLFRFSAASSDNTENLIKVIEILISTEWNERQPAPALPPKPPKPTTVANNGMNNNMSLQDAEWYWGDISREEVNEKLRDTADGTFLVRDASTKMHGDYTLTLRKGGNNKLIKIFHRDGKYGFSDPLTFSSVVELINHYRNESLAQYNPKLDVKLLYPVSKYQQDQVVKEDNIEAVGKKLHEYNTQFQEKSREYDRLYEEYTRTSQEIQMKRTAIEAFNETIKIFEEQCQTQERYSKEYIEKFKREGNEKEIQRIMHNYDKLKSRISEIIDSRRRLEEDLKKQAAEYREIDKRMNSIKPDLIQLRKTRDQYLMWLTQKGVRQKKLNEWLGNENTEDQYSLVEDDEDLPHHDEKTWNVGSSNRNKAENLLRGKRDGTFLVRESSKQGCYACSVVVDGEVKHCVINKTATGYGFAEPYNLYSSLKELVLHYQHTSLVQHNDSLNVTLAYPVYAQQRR
T4 sequence (O00329 whole entry S253N): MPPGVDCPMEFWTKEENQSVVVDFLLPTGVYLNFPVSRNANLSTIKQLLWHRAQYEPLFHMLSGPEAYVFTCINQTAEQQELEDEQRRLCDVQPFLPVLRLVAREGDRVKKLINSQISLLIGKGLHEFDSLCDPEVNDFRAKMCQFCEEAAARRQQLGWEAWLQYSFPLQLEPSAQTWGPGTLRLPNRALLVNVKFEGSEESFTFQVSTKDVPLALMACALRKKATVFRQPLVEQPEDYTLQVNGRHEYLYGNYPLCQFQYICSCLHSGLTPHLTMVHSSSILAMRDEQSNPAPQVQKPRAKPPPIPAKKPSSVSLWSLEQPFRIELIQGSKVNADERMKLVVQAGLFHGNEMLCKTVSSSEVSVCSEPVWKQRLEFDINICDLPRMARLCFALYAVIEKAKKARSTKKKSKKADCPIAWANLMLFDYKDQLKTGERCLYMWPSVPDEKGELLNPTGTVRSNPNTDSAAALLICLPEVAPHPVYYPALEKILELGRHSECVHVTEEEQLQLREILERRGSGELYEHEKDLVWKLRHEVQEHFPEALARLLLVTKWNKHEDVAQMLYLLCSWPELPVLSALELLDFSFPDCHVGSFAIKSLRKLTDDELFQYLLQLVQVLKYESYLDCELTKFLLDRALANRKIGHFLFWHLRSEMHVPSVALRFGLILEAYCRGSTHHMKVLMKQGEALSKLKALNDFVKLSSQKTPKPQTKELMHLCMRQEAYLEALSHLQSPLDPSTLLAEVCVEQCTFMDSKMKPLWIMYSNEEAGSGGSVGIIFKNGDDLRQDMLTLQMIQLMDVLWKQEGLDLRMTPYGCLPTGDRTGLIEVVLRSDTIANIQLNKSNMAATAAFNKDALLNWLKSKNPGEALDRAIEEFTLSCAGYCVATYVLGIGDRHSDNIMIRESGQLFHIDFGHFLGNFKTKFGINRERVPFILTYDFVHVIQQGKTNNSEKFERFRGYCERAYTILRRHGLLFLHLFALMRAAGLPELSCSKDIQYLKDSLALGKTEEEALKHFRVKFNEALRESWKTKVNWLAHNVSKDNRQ
T4 sequence (P27986 whole entry partner): as the sequence (P27986 whole entry partner) above
T2 sequence (P42338 whole entry): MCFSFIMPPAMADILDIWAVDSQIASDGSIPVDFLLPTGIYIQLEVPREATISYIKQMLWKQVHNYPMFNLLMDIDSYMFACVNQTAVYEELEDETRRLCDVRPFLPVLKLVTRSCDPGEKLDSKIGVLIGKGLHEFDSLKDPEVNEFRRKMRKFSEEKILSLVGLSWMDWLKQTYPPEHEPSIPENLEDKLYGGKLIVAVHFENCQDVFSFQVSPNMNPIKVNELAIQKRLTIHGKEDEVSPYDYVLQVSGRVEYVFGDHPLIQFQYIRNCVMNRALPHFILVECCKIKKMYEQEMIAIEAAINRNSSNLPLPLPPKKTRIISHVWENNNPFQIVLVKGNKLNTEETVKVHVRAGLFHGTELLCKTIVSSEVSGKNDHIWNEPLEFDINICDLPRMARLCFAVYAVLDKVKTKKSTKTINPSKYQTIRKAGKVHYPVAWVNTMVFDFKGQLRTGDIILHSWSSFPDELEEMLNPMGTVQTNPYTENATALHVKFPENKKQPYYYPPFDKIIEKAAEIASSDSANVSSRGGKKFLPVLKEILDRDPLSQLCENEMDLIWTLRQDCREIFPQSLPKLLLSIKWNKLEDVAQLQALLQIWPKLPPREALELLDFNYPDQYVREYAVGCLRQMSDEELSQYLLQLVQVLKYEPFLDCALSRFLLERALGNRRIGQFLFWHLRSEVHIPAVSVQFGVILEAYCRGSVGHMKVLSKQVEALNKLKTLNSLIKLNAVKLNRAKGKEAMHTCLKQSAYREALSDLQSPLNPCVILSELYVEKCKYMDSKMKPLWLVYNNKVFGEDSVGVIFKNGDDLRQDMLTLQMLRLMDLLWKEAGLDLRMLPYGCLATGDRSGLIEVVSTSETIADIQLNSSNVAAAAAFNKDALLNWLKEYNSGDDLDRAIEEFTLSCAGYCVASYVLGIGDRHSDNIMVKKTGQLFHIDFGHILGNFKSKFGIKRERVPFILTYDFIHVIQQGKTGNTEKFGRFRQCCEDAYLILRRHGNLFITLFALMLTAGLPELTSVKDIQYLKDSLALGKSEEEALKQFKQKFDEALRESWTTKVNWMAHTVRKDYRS
T2 sequence (P27986 whole entry partner): as the sequence (P27986 whole entry partner) above
T3 sequence (P48736 whole entry): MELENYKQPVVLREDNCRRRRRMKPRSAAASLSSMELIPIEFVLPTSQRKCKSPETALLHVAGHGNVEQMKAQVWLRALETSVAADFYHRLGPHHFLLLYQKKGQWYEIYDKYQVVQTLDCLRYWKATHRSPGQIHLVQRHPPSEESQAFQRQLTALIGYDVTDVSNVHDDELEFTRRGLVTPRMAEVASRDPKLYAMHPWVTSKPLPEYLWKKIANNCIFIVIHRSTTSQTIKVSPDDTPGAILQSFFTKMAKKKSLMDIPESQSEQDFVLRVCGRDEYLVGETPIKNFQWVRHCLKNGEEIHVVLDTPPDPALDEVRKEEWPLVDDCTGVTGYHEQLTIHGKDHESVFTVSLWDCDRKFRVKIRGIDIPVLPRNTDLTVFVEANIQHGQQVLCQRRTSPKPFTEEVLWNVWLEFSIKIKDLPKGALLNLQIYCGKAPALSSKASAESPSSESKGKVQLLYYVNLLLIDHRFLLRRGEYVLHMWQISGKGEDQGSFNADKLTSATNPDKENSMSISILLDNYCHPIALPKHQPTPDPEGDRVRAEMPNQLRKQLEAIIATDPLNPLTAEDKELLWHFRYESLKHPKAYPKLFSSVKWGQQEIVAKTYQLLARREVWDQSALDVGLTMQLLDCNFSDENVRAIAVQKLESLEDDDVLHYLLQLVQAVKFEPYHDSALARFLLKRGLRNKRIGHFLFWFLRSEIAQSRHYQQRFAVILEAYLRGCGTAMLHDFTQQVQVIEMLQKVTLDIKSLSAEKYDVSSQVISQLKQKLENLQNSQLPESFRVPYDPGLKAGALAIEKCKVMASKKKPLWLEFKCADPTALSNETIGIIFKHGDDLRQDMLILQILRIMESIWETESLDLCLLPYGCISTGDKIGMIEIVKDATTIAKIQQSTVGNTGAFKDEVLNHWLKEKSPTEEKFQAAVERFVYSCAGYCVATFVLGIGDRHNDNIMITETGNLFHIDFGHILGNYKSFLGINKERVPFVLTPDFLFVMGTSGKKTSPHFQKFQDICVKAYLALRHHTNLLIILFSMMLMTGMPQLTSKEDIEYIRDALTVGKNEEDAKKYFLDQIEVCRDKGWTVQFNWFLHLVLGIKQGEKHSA

In general, EC50 refers to the concentration needed to bring the measured effect to its halfway point. As usually defined, the melting point is the temperature, or range, at which the solid turns liquid. As for `Cc1ccccc1-n1c(CSc2ncnc3[nH]cnc23)nc2cccc(Cl)c2c1=O` [Compound D-010, 5-Chloro-2-(9H-purin-6-ylsulfanylmethyl)-3-o-tolyl-3H-quinazolin-4-one], the melting point worked out at 213.9 °C. Further, in [1], the “Alpha/Delta Ratio” value was found to be 800 and the IC50 worked out at 48000 nM. In addition, in [2], the “Beta/Delta Ratio” value is 183 and the IC50 was 11000 nM. Further, in [3], the IC50 was found to be 700 nM and the “Gamma/Delta Ratio” value was 12. Further, the “Alpha/Delta Ratio” value in data set [4] was determined as 658. Further, in data set [5], the “Beta/Delta Ratio” value came out at 144 and the IC50 is 33000 ± 4000 nM. Further, in [6], the “Gamma/Delta Ratio” value is listed as 27 and the IC50 was determined as 6000 ± 3000 nM. The compound also displayed a concentration giving a half-maximal response (EC50) in data set [7] of 300 ± 300 nM. Moreover, the concentration for a half-maximal effect (EC50) in data set [8] is 200 ± 100 nM. The IC50 in data set [9] was determined as 230 ± 200 nM. Also, the IC50 in data set [10] came out at 60 nM.
`COc1ccccc1-n1c(CSc2ncnc3[nH]cnc23)nc2cccc(C)c2c1=O` [Compound D-047, 3-(2-methoxyphenyl)-5-methyl-2-(9H-purin-6-ylsulfanylmethyl)-3H-quinazolin-4-one]: the entries for the “Alpha/Delta Ratio” value in data set [1] and in data set [4] were 333 and 810, respectively. For the same compound, the IC50 in data set [1] worked out at 30000 nM; in data set [2], 9000 nM; in [3], 500 nM; in [5] it was 30000 nM; in data set [6], 4500 nM; in [9] it was 200 nM. Further, the IC50 in data set [10] amounted to 90 nM. Besides, the figures for the “Beta/Delta Ratio” value in data set [2] and in [5] were 100 and 150, respectively. Besides, the “Gamma/Delta Ratio” value in data set [3] is listed as 5.6; in data set [6], 23. Further, the values for the EC50 in data set [7] and in [8] were 500 ± 200 nM and 300 nM, respectively.
As a reminder, the remaining activity is the share of the control activity or signal that is left under treatment. In turn, `O=c1c2c(Cl)cccc2nc(CSc2ncnc3[nH]cnc23)n1-c1ccccc1F` [Compound D-011, 5-Chloro-3-(2-fluorophenyl)-2-(9H-purin-6-ylsulfanylmethyl)-3H-quinazolin-4-one] displayed a melting point of 244 °C. Also, the “Alpha/Delta Ratio” value in data set [1] is >1,000. In addition, the remaining activity at 100 µM in [1] (setting [12]) was 72%. In addition, in data set [2], the “Beta/Delta Ratio” value amounted to 550 and the IC50 was found to be 55000 nM. In addition, in data set [3], the IC50 turned out to be 1000 nM and the “Gamma/Delta Ratio” value worked out at 10. The “Alpha/Delta Ratio” value in data set [4] stood at 700. In addition, in [5], the “Beta/Delta Ratio” value amounted to 420 and the IC50 is 105000 ± 35000 nM. Besides, in [6], the “Gamma/Delta Ratio” value is recorded as 244 and the IC50 was 61000 ± 70000 nM. Also, the EC50 in [7] is 900 ± 700 nM. Also, in [8], the EC50 turned out to be 300 ± 100 nM. This compound returned an IC50 in [9] of 250 ± 200 nM. Besides, the IC50 in data set [10] was found to be 100 nM.
In turn, `O=c1c2cccc(Cl)c2nc(CSc2ncnc3[nH]cnc23)n1-c1ccccc1Cl` [Compound D-021, 8-Chloro-3-(2-chlorophenyl)-2-(9H-purin-6-ylsulfanylmethyl)-3H-quinazolin-4-one] had a melting point of 211.9 to 212.7 °C. In [1], the “Alpha/Delta Ratio” value was 62 and the IC50 worked out at 100000 nM. Moreover, in data set [2], the “Beta/Delta Ratio” value was 68 and the IC50 was determined as 110000 nM. In addition, in [8], the EC50 stood at 1800 nM. Further, the EC50 in data set [11] was found to be 3500 nM. The IC50 in data set [10] is 1600 nM.
For `CC(=O)O.O=c1c2ccccc2nc(CSc2ncnc3[nH]cnc23)n1N1CCOCC1` [Compound D-039, 3-morpholin-4-yl-2-(9H-purin-6-ylsulfanylmethyl)-3H-quinazolin-4-one, acetate salt], the figures for the “Alpha/Delta Ratio” value in [1] and in [4] were greater than 111 and 65, respectively. Further, the remaining activity at 100 µM in data set [1] (read-out: percent activity remaining at 100 μM) came to 77%; in data set [2] it was 66%. Also, the figures for the “Beta/Delta Ratio” value in data set [2] and in data set [5] were greater than 111 and 50, respectively. Besides, the IC50 in data set [3] came to 38000 nM; in data set [9], 2600 nM; in data set [10], 900 nM. In addition, the entries for the “Gamma/Delta Ratio” value in data set [3] and in data set [6] were 42 and 44, respectively. In addition, the EC50 in data set [7] is 5000 nM; in [8] it was 900 ± 100 nM.
As for `O=c1c2c(F)cccc2nc(CSc2ncnc3[nH]cnc23)n1Cc1ccccc1` [Compound D-043, 3-benzyl-5-fluoro-2-(9H-purin-6-ylsulfanylmethyl)-3H-quinazolin-4-one], in data set [1], the “Alpha/Delta Ratio” value is on record as greater than 47. The remaining activity at 100 µM in data set [1] (setting [12]) came out at 83%; in data set [2], 77%. The “Beta/Delta Ratio” value in data set [2] is greater than 47. The EC50 was 1400 nM in data set [8] and 2600 nM in [11]. For the same compound, the IC50 in data set [10] worked out at 2100 nM.
On to `O=c1c2c(Cl)cccc2nc(CSc2ncnc3[nH]cnc23)n1-c1ccccc1-c1ccccc1` [Compound D-013, 3-Biphenyl-2-yl-5-chloro-2-(9H-purin-6-ylsulfanylmethyl)-3H-quinazolin-4-one], for which the melting point was 222 to 222.5 °C (dec.). In data set [1], the “Alpha/Delta Ratio” value is >2,000. The remaining activity at 100 µM in [1] (setting [12]) stood at 71%. In addition, in data set [2], the “Beta/Delta Ratio” value came out at 260 and the IC50 turned out to be 13000 nM. Besides, in data set [3], the IC50 turned out to be 2100 nM and the “Gamma/Delta Ratio” value was determined as 42. Moreover, the “Alpha/Delta Ratio” value in data set [4] is reported as 461. Also, in data set [5], the “Beta/Delta Ratio” value was determined as 289. In addition, in data set [6], the “Gamma/Delta Ratio” value is reported as 24 and the IC50 is 12000 ± 1000 nM. Further, in data set [8], the EC50 was found to be 1400 nM. The IC50 in [9] is 510 ± 600 nM. In addition, the IC50 in [10] was found to be 50 nM.
